Experimental findings from patent US20230219946A1, “PYRIMIDIN-4(3H)-ONE HETEROCYCLIC COMPOUND, PREPARATION METHOD THEREOF, AND PHARMACEUTICAL USE THEREOF” (Beijing Innocare Pharma Tech Co., Ltd., priority 2020, published 2023) are described below.

Where a name gives a salt, the structure may show the parent alone.

The target in data set [1] is T1, Recombinant human SHP2 full-length protein (Homo sapiens, UniProt Q06124).
T1 construct: Recombinant human SHP2 full-length protein
T1 sequence (Q06124 1-593): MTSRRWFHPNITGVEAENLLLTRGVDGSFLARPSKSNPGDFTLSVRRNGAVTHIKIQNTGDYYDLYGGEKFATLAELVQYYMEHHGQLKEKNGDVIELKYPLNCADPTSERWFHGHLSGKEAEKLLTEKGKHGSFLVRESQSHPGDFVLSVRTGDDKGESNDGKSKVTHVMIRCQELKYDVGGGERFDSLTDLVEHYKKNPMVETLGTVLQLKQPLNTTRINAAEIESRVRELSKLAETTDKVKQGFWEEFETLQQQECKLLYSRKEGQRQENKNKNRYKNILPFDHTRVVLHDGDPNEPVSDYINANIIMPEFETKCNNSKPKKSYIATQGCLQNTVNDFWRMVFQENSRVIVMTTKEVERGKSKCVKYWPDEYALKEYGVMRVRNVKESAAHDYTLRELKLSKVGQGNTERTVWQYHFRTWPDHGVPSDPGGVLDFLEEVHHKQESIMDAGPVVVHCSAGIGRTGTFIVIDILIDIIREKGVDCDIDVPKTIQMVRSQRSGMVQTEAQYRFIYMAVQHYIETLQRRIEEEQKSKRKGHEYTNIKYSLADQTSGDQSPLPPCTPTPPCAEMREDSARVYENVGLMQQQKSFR
The experiment in a line: SHP2 activity inhibition measurement (fluorescence detection, surrogate substrate DiFMUP). Type of data set: biochemical. Conditions: recombinant human SHP2 full-length protein activated with diphosphopeptide. The procedure: SHP2 activity inhibition measurement
The effect of the compound of the present invention on SHP2 activity is evaluated by rapid fluorescence detection method using the surrogate substrate DiFMUP.
(§1) The experimental method is outlined as follows:
Recombinant human SHP2 full-length protein was expressed and purified by the protein purification and identification platform of Tsinghua University; diphosphopeptide (H2N-LN(pY)IDLDLV-(dPEG8)LST(pY)ASINFQK-amide) was synthesized by Nanjing GenScript Biotechnology Co., Ltd.; surrogate substrate DiFMUP was purchased from Thermo Fisher Scientific (Cat. No. D6567); reaction buffer contained the following components: 60 mM HEPES (pH 7.2), 75 mM NaCl, 75 mM KCl, 1 mM EDTA, 0.05% TWEEN 20, and 5 mM DTT.
The compound was dissolved in DMSO (Sigma, Cat. No. D5879) and diluted to 100 μM. The resulting solution was serially diluted 4-fold with DMSO to a minimum concentration of 6.1 nM, and each concentration point was diluted 25-fold with the reaction buffer.
10 μL of compound solution and 10 μL of 0.25 nM SHP2 protein solution were added to a 384-well microplate (Corning, Cat. No. 3575), mixed well, and incubated at room temperature for 30 min. 10 μL of 0.5 μM diphosphopeptide (dissolved in the reaction buffer) was added, mixed well, and incubated at room temperature for 30 to 60 min. Subsequently, 10 μL of 60 μM DiFMUP solution (dissolved in the reaction buffer) was added, mixed well, and let stand at room temperature. After 30 min, fluorescence signals were measured at 340 nm (excitation wavelength)/450 nm (emission wavelength) using a microplate reader (EnSpire, Perkin Elmer). The fluorescence intensity value was positively correlated with the degree of dephosphorylation of the substrate, thereby reflecting the catalytic activity of SHP2. […] An inhibition curve of the compound was plotted by XLfit software and the inhibitory IC50 was calculated.

For data set [2], the system named is human non-small cell lung cancer cell line NCI-H358. The experiment in a line: NCI-H358 cell proliferation inhibition (luminescent cell viability assay, CTG). The following applies: 120 h, NCI-H358 cells, 5 days, CellTiter-Glo. Type of data set: cell-based. How it is done: Determination of NCI-H358 cell proliferation inhibition
The effect of the compound of the present invention on proliferation of human non-small cell lung cancer cell line NCI-H358 is evaluated by luminescent cell viability assay.
as §1
The compound was dissolved in DMSO (Sigma, Cat. No. D5879) and diluted to 5 mM. The resulting solution was serially diluted 4-fold with DMSO to a minimum concentration of […], and each concentration point was diluted 50-fold with RPMI 1640 Medium (Thermo Fisher Scientific, Cat. No. 11995073). When the IC50 value of the compound was low, the initial concentration of the compound was further reduced.
NCI-H358 cells (ATCC, Cat. No. CRL-5807) were cultured in RPMI 1640 Complete Medium [RPMI 1640 Medium was supplemented with 10% FBS (GBICO, Cat. No. 10099-141) and 100 units/mL Penicillin-Streptomycin (Thermo Fisher Scientific, Cat. No. 15140122)]. The cells (15,000 cells/mL) were seeded in 90 μL of Complete Medium on a 96-well plate. After culturing overnight, 10 μL of compound solution was added to each well and cultured at 37° C. in a 5% CO2 incubator for 5 days. According to the instruction from the CellTilter-Glo (CTG) kit (Promega, Cat. No. G7572), the cell culture plate was removed from incubator and equilibrated to room temperature. The cells were lysed fully with 50 μL of CTG reagent and placed at room temperature for 10 min. A luminescence signal was read by the microplate reader (EnVision, Perkin Elmer). […] An inhibition curve of the compound was plotted by XLfit software and the inhibitory IC50 was calculated.

For a further data set, the target named is hERG potassium channel (Homo sapiens, UniProt Q12809). Conditions: 3 μM test compound, whole-cell patch clamp, HEK293-hERG, room temperature. How it is done: All electrophysiological experiments were conducted at room temperature.
Sequence of hERG potassium channel (Q12809 whole entry): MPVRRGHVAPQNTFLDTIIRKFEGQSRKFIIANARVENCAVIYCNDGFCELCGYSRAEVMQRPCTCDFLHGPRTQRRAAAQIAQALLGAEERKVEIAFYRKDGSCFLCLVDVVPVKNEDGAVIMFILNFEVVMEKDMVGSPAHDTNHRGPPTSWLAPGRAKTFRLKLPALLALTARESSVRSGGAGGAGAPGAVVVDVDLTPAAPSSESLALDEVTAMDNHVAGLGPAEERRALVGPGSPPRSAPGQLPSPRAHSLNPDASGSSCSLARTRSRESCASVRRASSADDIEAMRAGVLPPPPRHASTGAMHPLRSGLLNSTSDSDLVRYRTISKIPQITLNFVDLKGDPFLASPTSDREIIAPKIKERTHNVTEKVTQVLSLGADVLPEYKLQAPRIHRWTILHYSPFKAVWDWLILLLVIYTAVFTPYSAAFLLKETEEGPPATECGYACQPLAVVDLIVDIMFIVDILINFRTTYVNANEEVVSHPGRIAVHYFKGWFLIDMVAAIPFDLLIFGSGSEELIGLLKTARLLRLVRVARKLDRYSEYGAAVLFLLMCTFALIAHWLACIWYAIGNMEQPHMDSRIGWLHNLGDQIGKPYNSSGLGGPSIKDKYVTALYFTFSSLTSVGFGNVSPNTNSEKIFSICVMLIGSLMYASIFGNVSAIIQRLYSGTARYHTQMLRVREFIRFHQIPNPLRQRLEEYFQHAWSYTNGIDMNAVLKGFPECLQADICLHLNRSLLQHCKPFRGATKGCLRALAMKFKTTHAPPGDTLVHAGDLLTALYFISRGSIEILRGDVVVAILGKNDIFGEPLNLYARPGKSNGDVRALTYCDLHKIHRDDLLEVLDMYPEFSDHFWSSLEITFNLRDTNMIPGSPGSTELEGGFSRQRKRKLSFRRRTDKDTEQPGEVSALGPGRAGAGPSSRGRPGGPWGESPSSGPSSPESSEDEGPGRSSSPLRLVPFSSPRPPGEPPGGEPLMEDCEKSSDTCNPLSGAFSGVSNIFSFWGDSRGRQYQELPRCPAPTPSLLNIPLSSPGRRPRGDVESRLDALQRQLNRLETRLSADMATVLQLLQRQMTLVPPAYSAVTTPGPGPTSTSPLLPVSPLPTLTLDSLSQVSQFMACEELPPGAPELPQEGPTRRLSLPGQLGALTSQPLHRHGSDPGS

In the case of `Cn1cc2c(Cl)c(Sc3cnc(N4CCC5(CCC[C@H]5N)CC4)n(C)c3=O)ccc2n1` [Compound 7, (R)-2-(1-amino-8-azaspiro[4.5]decan-8-yl)-5-((4-chloro-2-methyl-2H-indazole-5-yl)thio)-3-methylpyrimidin-4(3H)-one hydrochloride], the IC50 in data set [1] was found to be 12 nM; in data set [2], 575 nM. The “hERG current inhibition percentage at 3 μM solubility (n = 2)” value at hERG potassium channel came out at 10%.
